Key:
TSP-1 = assay: Microscale thermophoresis; type: binding; settings: data not shown
HUVECs = assay: Wound-healing migration assay; type: cell-based, human; settings: 100 μM, 9 h, after mitomycin C, mean of 3 in quadruplicate
Protocol: Figure 2 TAX2 peptide impairs endothelial cell migration and inhibits angiogenesis in vitro and ex vivo A. HUVECs were treated with TAX2 (100 μM) or scrambled peptide (Ctrl, 100 μM). CD47 was immunoprecipitated from total protein lysates using anti-CD47 (clone B6H12) and non-specific IgGs were used as a negative control. Immunocomplexes were then submitted to SDS-PAGE and immunoblotted (IB) using specific TSP-1 and CD47 antibodies. Histogram represents the quantification of co-immunoprecipitated TSP-1 relative to immunoprecipitated CD47. Results are expressed as percentage compared to control (n = 3 separate experiments, t test). B. HUVECs (1 × 10^5 per well) were grown at confluence and then cell proliferation was inhibited by incubating with 10 μg/mL mitomycin C for 2 h. […] Graph represents the quantification of the wounded area. […] Hoechst-stained migrating cells attached on outside surface of the top chamber were photographed (20× objective) and counted. Results are expressed as percentage of migrated cells as compared to control. […] After 8 h incubation, HUVEC tube-like formation was observed on an inverted microscope (40×) and quantification of network total length was done using ImageJ software. […] Data are expressed as the mean ± SE from at least 3 independent experiments, each performed in triplicate. […] The transcriptional level of TSP-1 was assessed by RT-PCR and normalized to β-actin. […]

TSP-1 binding to CD36 = assay: Co-immunoprecipitation TSP-1:CD36 in HUVECs; type: cell-based, human; settings: 100 μM, 24 h
Protocol: Figure 3 Anti-angiogenic properties of TAX2 are mediated by TSP-1 binding to CD36 A. Expression of CD36 in HUVECs was assessed by immunoblotting (left panel) and immunofluorescence staining (right panel, red). Nuclei were counterstained with DAPI (blue). B. HUVECs were incubated with 100 μM cyclic TAX2 or in control conditions for 24 h. Then, CD36-containing complexes were co-immunoprecipitated from whole cell extracts (non-specific IgGs were used as a negative control for immunoprecipitation). Immunocomplexes were submitted to SDS-PAGE and immunoblotted (IB) by using specific antibodies for TSP-1 and CD36. The presence of TSP-1 in immunocomplexes was quantified by densitometric analysis relative to immunoprecipitated CD36. C. VEGFR2 phosphorylation induced by VEGF in the presence of TAX2. After overnight serum starvation, HUVECs were pre-treated with 100 μM TAX2 or control for 12 h, then incubated with 30 ng/mL VEGF for 5 min. […] Data are expressed as the mean ± SE (n = 3; *p < 0.05, ANOVA). […] Quantification of total tube-like network length was realized using ImageJ software E. Branching points F. and nodal structures G. were numbered using the S.CORE web-based system. Data are expressed as the mean ± SE (n = 3; *p < 0.05, ANOVA). […]

CEVSQLLKGDAC (disulfide) [TAX2, CD47-derived cyclic disulfide dodecapeptide …]
binding to TSP-1 by microscale thermophoresis (TSP-1): confirmed
endothelial cell migration rate (wound healing) (HUVECs): reduced migration rate
increase of TSP-1 co-immunoprecipitated with CD36 (TSP-1 binding to CD36): 3 fold
